The assay concerns the target BTK (Homo sapiens (Human), UniProt Q06187). Put plainly: Btk in vitro inhibitory activity (one of Method A TR-FRET, Method B electrophoretic mobility shift, Method C radiometric filter binding). In kind it is biochemical. A general note: In EMSA bound probe runs differently from free probe, usually more slowly.
Where [1] appears, read: determined using one of the methods of Example 355a, 355b and 355c, read-out: BTK IC50.

Like-named read-outs stand apart in the source and are kept apart here. Where only a bound is given, the exact number is not on record here.

Chain of BTK (Q06187 whole entry): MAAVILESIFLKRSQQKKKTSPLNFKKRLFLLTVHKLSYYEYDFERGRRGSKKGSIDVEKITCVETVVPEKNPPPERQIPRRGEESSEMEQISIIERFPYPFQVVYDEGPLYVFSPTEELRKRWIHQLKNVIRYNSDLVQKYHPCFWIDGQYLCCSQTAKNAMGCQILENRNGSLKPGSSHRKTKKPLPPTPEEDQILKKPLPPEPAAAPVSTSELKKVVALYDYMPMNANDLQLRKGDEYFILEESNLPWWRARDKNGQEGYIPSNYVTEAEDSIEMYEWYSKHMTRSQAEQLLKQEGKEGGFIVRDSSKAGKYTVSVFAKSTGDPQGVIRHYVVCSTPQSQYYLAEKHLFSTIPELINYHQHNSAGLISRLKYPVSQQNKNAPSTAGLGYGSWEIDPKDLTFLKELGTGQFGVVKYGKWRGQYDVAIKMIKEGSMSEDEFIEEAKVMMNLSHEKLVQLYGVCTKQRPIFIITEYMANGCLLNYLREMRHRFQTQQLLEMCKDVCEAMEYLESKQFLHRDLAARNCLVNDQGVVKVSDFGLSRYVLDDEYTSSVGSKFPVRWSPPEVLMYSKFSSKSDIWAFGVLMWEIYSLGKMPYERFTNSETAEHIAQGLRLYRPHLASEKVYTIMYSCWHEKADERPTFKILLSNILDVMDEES

As usually defined, the IC50 is the concentration that gives 50% inhibition. On to `NC(=O)c1nnc(N2CCC[C@@H](NC(=O)c3ccc(Cl)s3)C2)nc1Nc1ccc(C(=O)N2CCOCC2)cc1` [Example 17, (R)-3-(3-(5-chlorothiophene-2-carboxamido)piperidin-1-yl)-5-(4-(morpholine-4-carbonyl)phenylamino)-1,2,4-triazine-6-carboxamide], for which the IC50 under setting [1] is under 10 nM.

Turning to `NC(=O)c1nnc(N2CCC[C@@H](NC(=O)N3CCC(N4CCCCC4)CC3)C2)nc1Nc1ccc(C(=O)N2CCOCC2)cc1` [Example 37, (R)—N-(1-(6-carbamoyl-5-(4-(morpholine-4-carbonyl)phenylamino)-1,2,4-triazin-3-yl)piperidin-3-yl)-1,4′-bipiperidine-1′-carboxamide], the IC50 under setting [1] was 10 to 100 nM.

For the compound `NC(=O)c1nnc(N2CCC[C@@H](NC(=O)C3CCCC3)C2)nc1Nc1ccc(C(=O)N2CCOCC2)cc1` [Example 29, (R)-3-(3-(cyclopentanecarboxamido)piperidin-1-yl)-5-(4-(morpholine-4-carbonyl)phenylamino)-1,2,4-triazine-6-carboxamide], under setting [1], the IC50 is 10 to 100 nM.

For the compound `COc1ccc(C(=O)N[C@@H]2CCCN(c3cnc(C(N)=O)c(Nc4ccc(C5CCN(C=O)CC5)cc4)n3)C2)cc1` [Example 138, (R)-3-(4-(1-formylpiperidin-4-yl)phenylamino)-5-(3-(4-methoxybenzamido)piperidin-1-yl)pyrazine-2-carboxamide], the IC50 is under 10 nM under setting [1] and under 10 nM (read-out: Btk (IC50)).

In the case of `Cc1cc(Nc2nc(N3CCC[C@@H](NC(=O)N(C)C)[C@H]3C)cnc2C(N)=O)sn1` [Example 242, 5-((2R,3R)-3-(3,3-dimethylureido)-2-methylpiperidin-1-yl)-3-(3-methylisothiazol-5-ylamino)pyrazine-2-carboxamide], the IC50 under setting [1] was under 10 nM.

For `CCC(=O)N1CCC(C)(c2ccc(Nc3nc(N4CCC[C@@H](N5CCN(C)C5=O)C4)cnc3C(N)=O)cc2)CC1` [Example 269, (R)-3-(4-(4-methyl-1-propionylpiperidin-4-yl)phenylamino)-5-(3-(3-methyl-2-oxoimidazolidin-1-yl)piperidin-1-yl)pyrazine-2-carboxamide], the IC50 was under 10 nM under setting [1] and under 10 nM (read-out: Btk (IC50)).

For the compound `Cc1cc(Nc2cc(N3CCC[C@@H](NC(=O)c4ccc(C(C)(C)C)cc4)C3)cnc2C(N)=O)sn1` [Example 77, (R)-5-(3-(4-tert-butylbenzamido)piperidin-1-yl)-3-(3-methylisothiazol-5-ylamino)picolinamide], the IC50 under setting [1] fell in the range of 10 to 100 nM.

Turning to `COc1ccc(C(=O)N[C@@H]2CCCN(c3nnc(C(N)=O)c(Nc4ccc(C(=O)N5CCOCC5)cc4)n3)C2)cc1` [Example 10, (R)-3-(3-(4-methoxybenzamido)piperidin-1-yl)-5-(4-(morpholine-4-carbonyl)phenylamino)-1,2,4-triazine-6-carboxamide], under setting [1], the IC50 was under 10 nM.

As to `CN1CCCN([C@@H]2CCCN(c3cnc(C(N)=O)c(Nc4ccc(C5(C)CCN(C6CCCC6)CC5)cc4)n3)C2)C1=O` [Example 283, (R)-3-(4-(1-cyclopentyl-4-methylpiperidin-4-yl)phenylamino)-5-(3-(3-methyl-2-oxotetrahydropyrimidin-1(2H)-yl)piperidin-1-yl)pyrazine-2-carboxamide], the IC50 under setting [1] is under 10 nM and the IC50 (read-out: Btk (IC50)) is under 10 nM.

As to `CN(C)C(=O)N[C@@H]1CCCN(c2cnc(C(N)=O)c(Nc3cnn(C4CCN(C5CCCC5)CC4)c3)n2)C1` [Example 218, (R)-3-(1-(1-cyclopentylpiperidin-4-yl)-1H-pyrazol-4-ylamino)-5-(3-(3,3-dimethylureido)piperidin-1-yl)pyrazine-2-carboxamide], the IC50 under setting [1] was under 10 nM.

As for `CN(C)C(=O)N[C@@H]1CCCN(c2cnc(C(N)=O)c(Nc3ccc(C4(CN)CC4)cc3)n2)C1` [Example 201, (R)-3-(4-(1-(aminomethyl)cyclopropyl)phenylamino)-5-(3-(3,3-dimethylureido)piperidin-1-yl)pyrazine-2-carboxamide], the IC50 under setting [1] fell in the range of 10 to 100 nM.

Values taken from patent US9656988B2 (Pharmacyclics LLC, priority 2013, dated 2017).
